Reference: paper PMC5739799 (Oncotarget, 2017)
Values joined by “and” are separate entries in the source; they are usually repeats but may differ in a detail not shown here. Equal values may be shown once.

Legend:
H129 hepatoma = experiment: Syngenic orthotopic H129 hepatoma mouse model, survival; format: in vivo, C3H/HeN mice; conditions: sorafenib 30 mg/kg/day oral, separate study; vehicle 28 days
Description: C3H/HeN mice aged 10–12 weeks with an average weight of 25 g were used for this model and were obtained from Charles River (Sulzfeld, Germany). Experiments were initiated after an acclimatizing period of at least 8 days. Syngenic murine H129 hepatoma cells (obtained from Dr. V. Schmitz, University of Bonn, Germany) were cultivated in RPMI medium, containing 10% fetal calf serum (FCS) and 5% glutamine. Cells were harvested in a subconfluent state (70–80%), prepared for injection of 5×10^4 cells/20 μL in growth factor-free Matrigel, and transplanted in the left upper liver lobe. Animals with surgical failures were marked and excluded from the experiment. Treatment was initiated 4–5 days after transplantation. One set of mice received regorafenib 10 mg/kg once daily, vehicle solution once daily, or no treatment (n=8 per treatment group). […] Treatments were given orally via gavage. The vehicle solution contained 10% Transcutol, 10% Cremophor, and 80% 0.9% NaCl. Animals were weighed twice a week and monitored daily for behavior and wound healing. […] Due to ascites formation in the peritoneum (a symptom of the disease), body weight was not used as part of the assessment. Animals were dissected to assess the cause of death unless they had died in their cage overnight.
(§1) In the syngenic orthotopic H129 model, differences in survival times between groups were analyzed for significance using log-rank tests. Analysis of tumor volumes of the HCC-PDX models was performed with log2-transformed values on defined days of measurement based on the assumption of their log-normal distribution. […] All respective statistical test results were derived from a common linear model that allows for individual variances in the different groups. The adjustment for multiple testing was carried out using Šidák correction at a significance level of 0.05. […] Bead-based western data were analyzed (described in [15]) using the MEV 4.8.1 software package. […]

HCC-PDX model 5 = experiment: Patient-derived HCC xenograft model 5, tumor growth; format: in vivo, BALB/c nude mice
Protocol: (§2) The PDX studies were carried out by WuXi AppTec (Shanghai, China). HCC-PDX models were originally established from surgically resected tumor tissue that was implanted in 6–8-week-old female BALB/c nude mice. Animal studies were performed according to the guidelines approved by the Institutional Animal Care and Use Committee of Wuxi AppTec, which follow the guidance of the Association for the Assessment and Accreditation of Laboratory Animal Care. Animals were routinely monitored for their health status and their body weights. Treatment was suspended and/or doses reduced at body weight losses >10%. Animals were euthanized when the tumor size exceeded 2000 mm^3. Pieces from tumor xenografts (∼30 mm^3) from passages 4–8 (ST1) were implanted subcutaneously at the right flank, and tumors were grown to an average size of about 150–200 mm^3. […] Tumor size was measured twice weekly using caliper measurements. Tumor volume (mm^3) was calculated using the formula 0.5 a × b^2, where a and b are the long and short diameters of the tumor, respectively. TGI was assessed either by calculating the ratio of the mean tumor volumes of treated and control groups or by determination of the RTV, which relates tumor volumes at any given day of treatment to the volume at the first treatment day.
(§3) In the syngenic orthotopic H129 model, differences in survival times between groups were analyzed for significance using log-rank tests. Analysis of tumor volumes of the HCC-PDX models was performed with log2-transformed values on defined days of measurement based on the assumption of their log-normal distribution. […] All respective statistical test results were derived from a common linear model that allows for individual variances in the different groups. The adjustment for multiple testing was carried out using Šidák correction at a significance level of 0.05. Back transformation of the mean difference of log2-transformed tumor volumes led to the ratios of the compared groups, whereby ratios of 1 reflect no difference in tumor volumes and ratios below or above 1 reflect smaller or larger tumor volumes, respectively, of the respective second group. The analyses of RTV were carried out in a similar fashion without the log2 transformation of values. Bead-based western data were analyzed (described in [15]) using the MEV 4.8.1 software package. A p-value <0.05 was regarded as significant. All statistical analyses were performed with SAS® 9.4 [34].

HCC-PDX model 10 = experiment: Patient-derived HCC xenograft model 10, tumor growth; format: in vivo, BALB/c nude mice
Protocol: as §2, §3

HCC-PDX model 19 = experiment: Patient-derived HCC xenograft model 19, tumor growth; format: in vivo, BALB/c nude mice
Protocol: as §2, §3

HCC-PDX model 20 = experiment: Patient-derived HCC xenograft model 20, tumor growth; format: in vivo, BALB/c nude mice
Protocol: as §2, §3

HCC-PDX model 61 = experiment: Patient-derived HCC xenograft model 61, tumor growth; format: in vivo, BALB/c nude mice
Protocol: as §2, §3

HCC-PDX model 101 = experiment: Patient-derived HCC xenograft model 101, tumor growth; format: in vivo, BALB/c nude mice
Protocol: as §2, §3

HCC-PDX model 141 = experiment: Patient-derived HCC xenograft model 141, tumor growth; format: in vivo, BALB/c nude mice
Protocol: as §2, §3

HCC-PDX model 159 = experiment: Patient-derived HCC xenograft model 159, tumor growth; format: in vivo, BALB/c nude mice
Protocol: as §2, §3

[1] = system: 10 patient-derived HCC xenograft (HCC-PDX) models; experiment: Panel of 10 HCC-PDX models, overall response and tolerability; format: in vivo, BALB/c nude mice
Protocol: as §2, §1

[2] = Steady-state plasma pharmacokinetics after oral dosing for 5 days; format: in vivo, BALB/c nu/nu mice
Protocol: Pharmacokinetic studies were performed in 6–8-week-old female BALB/c nu/nu mice (Charles River, Sulzfeld, Germany). […] Parent compounds and metabolites M-2 and M-5 were analyzed in plasma samples using validated bioanalytical liquid chromatography-tandem mass spectrometry (LC-MS/MS) methods according to an experimental protocol described earlier. PK parameters, namely the AUC(0–24)ss and Cmax, were calculated from plasma concentrations using a non-compartmental analysis.

[3] = day 28, R 10 / S 30 mg/kg/day oral starting dose
[4] = plasma analyte after oral sorafenib tosylate 30 mg/kg/day (21.9 mg/kg/day sorafenib) for 5 days

Q: What does the source list for `CNC(=O)c1cc(Oc2ccc(NC(=O)Nc3ccc(Cl)c(C(F)(F)F)c3)cc2)ccn1` [Sorafenib]?
A: Median survival, days (95% CI) (H129 hepatoma): 33 days and 33 (27, 35) days; Mean TV (HCC-PDX model 5; [3]): 134.44 mm^3; log TV Differences of least square-means, compound vs vehicle (HCC-PDX model 5; day 28, log2-transformed TV): -24,884; RTV Differences of least square-means, compound vs vehicle (HCC-PDX model 5; day 46): -54,048; RTV (HCC-PDX model 5; end of study, day 46): 1.74; Mean TV (HCC-PDX model 10; day 12, R 10 / S 30 mg/kg/day oral): 607.16 mm^3; log TV Differences of least square-means, compound vs vehicle (HCC-PDX model 10; day 12, log2-transformed TV): -17,966; RTV (HCC-PDX model 10; end of study (RTV analysis day R 40, S 30)): 13.39; Mean TV (HCC-PDX model 19; [3]): 496.54 mm^3; log TV Differences of least square-means, compound vs vehicle (HCC-PDX model 19; day 28, log2-transformed TV): -0.6887; RTV Differences of least square-means, compound vs vehicle (HCC-PDX model 19; day 42): -29.3; RTV (HCC-PDX model 19; end of study, day 42): 4.70; Mean TV (HCC-PDX model 20; day 21, R 10 / S 30 mg/kg/day oral): 737.74 mm^3; log TV Differences of least square-means, compound vs vehicle (HCC-PDX model 20; day 21, log2-transformed TV): -0.3573; RTV Differences of least square-means, compound vs vehicle (HCC-PDX model 20; day 42): -12.2; RTV (HCC-PDX model 20; end of study, day 42): 10.55; Mean TV (HCC-PDX model 61; day 25, R 10 / S 30 mg/kg/day oral): 424.86 mm^3; RTV (HCC-PDX model 61; end of study (RTV analysis day R 42, S 36)): 5.28; Mean TV (HCC-PDX model 101; [3]): 416.97 mm^3; RTV (HCC-PDX model 101; end of study, day 42): 5.37; Mean TV (HCC-PDX model 141; [3]): 139.51 mm^3; RTV (HCC-PDX model 141; end of study, day 42): 2.16; Mean TV (HCC-PDX model 159; [3]): 1144.22 mm^3; log TV Differences of least square-means, compound vs vehicle (HCC-PDX model 159; day 28, log2-transformed TV): -0.3943; RTV (HCC-PDX model 159; end of study, day 35): 9.73; Models with significant tumor growth inhibition ([1]; 10 HCC-PDX models, regorafenib 10, sorafenib 30 mg/kg/day oral): 7/10; Dose reductions and/or treatment interruptions ([1]; HCC-PDX models, sorafenib compared with regorafenib): more often; AUC(0–24)ss (percent of total) ([2]; after oral sorafenib tosylate 30 mg/kg/day for 5 days, total = molar sum of sorafenib and M-2): 99% of total; AUC(0–24)ss [2, 4]: 177 µM·h; Cmax [2, 4]: 23.9 µM; Estimated Cmax ([2]; sorafenib 30 mg/kg/day related to free base (HCC-PDX study dose), assuming dose linearity): 33.6 µM; Cumulated maximum concentration (Cmax) ([2]; sorafenib tosylate 30 mg/kg once daily for 5 days, parent plus metabolites): 24.5 µM
